Experimental findings from ChEMBL document CHEMBL1145206, “Design, synthesis and structure-activity relationships of novel taxane-based multidrug resistance reversal agents” (2005) are described below.

In the test the test system is MDA-MB-435. The experiment in a line: MDR-reversal activity evaluated against the resistant human breast tumor cell line MDA-435/LCC6-MDR. The test is classed as functional. More on the design: concentration or dose not given beside the values.

Take `CC(=O)O[C@H]1C(=O)[C@]2(C)[C@@H](OC(=O)CCc3ccc(C(O)c4ccccc4)cc3)C[C@H]3OC[C@@]3(OC(C)=O)[C@H]2[C@H](OC(=O)c2ccccc2)[C@]2(O)C[C@H](OC(C)=O)C(C)=C1C2(C)C` (some centres not stated): the Reduction turned out to be 48%.
With `COc1ccccc1C(=O)Oc1ccc(/C=C/C(=O)O[C@H]2C[C@H]3OC[C@@]3(OC(C)=O)[C@H]3[C@H](OC(=O)c4ccccc4)[C@]4(O)C[C@H](OC(C)=O)C(C)=C([C@@H](OC(C)=O)C(=O)[C@]23C)C4(C)C)cc1`, the Reduction is 57%.
On to `CC(=O)O[C@H]1C[C@@]2(O)[C@@H](OC(=O)c3ccccc3)[C@@H]3[C@]4(OC(C)=O)CO[C@@H]4C[C@H](OC(=O)/C=C/c4ccc(C(=O)c5ccccc5)cc4)[C@@]3(C)C(=O)[C@H](OC(=O)/C=C/c3ccccc3)C(=C1C)C2(C)C`, for which the Reduction turned out to be 11%.
Regarding `CC(=O)O[C@H]1C[C@@]2(O)[C@@H](OC(=O)c3ccccc3)[C@@H]3[C@]4(OC(C)=O)CO[C@@H]4C[C@H](OC(=O)/C=C/c4ccc(C(=O)c5ccccc5)cc4)[C@@]3(C)C(=O)[C@H](OC(=O)OCc3ccccc3)C(=C1C)C2(C)C`, the Reduction turned out to be 10%.
`CC(=O)O[C@H]1C(=O)[C@]2(C)[C@@H](OC(=O)/C=C/c3ccc(OC(=O)c4cccc5ccccc45)cc3)C[C@H]3OC[C@@]3(OC(C)=O)[C@H]2[C@H](OC(=O)c2ccccc2)[C@]2(O)C[C@H](OC(C)=O)C(C)=C1C2(C)C`: the Reduction turned out to be 89%.
On to `CC(=O)O[C@H]1C[C@@]2(O)[C@@H](OC(=O)c3ccccc3)[C@@H]3[C@]4(OC(C)=O)CO[C@@H]4C[C@H](OC(C)=O)[C@@]3(C)C(=O)[C@H](OC(=O)/C=C/c3ccc(C(=O)Oc4ccccc4)cc3)C(=C1C)C2(C)C`, for which the Reduction was determined as 24%.
In the case of `CC(=O)O[C@H]1C(=O)[C@]2(C)[C@@H](OC(=O)CCc3ccc4c(c3)C(=O)c3ccccc3C4=O)C[C@H]3OC[C@@]3(OC(C)=O)[C@H]2[C@H](OC(=O)c2ccccc2)[C@]2(O)C[C@H](OC(C)=O)C(C)=C1C2(C)C` it was 29%; in that of `CC(=O)O[C@H]1C[C@@]2(O)[C@@H](OC(=O)c3ccccc3)[C@@H]3[C@]4(OC(C)=O)CO[C@@H]4C[C@H](OC(C)=O)[C@@]3(C)C(=O)[C@H](OC(=O)/C=C/c3cccc(NC(=O)c4ccccc4)c3)C(=C1C)C2(C)C`, 43%; in that of `CC(=O)O[C@H]1C(=O)[C@]2(C)[C@@H](OC(=O)COc3cccc4ccccc34)C[C@H]3OC[C@@]3(OC(C)=O)[C@H]2[C@H](OC(=O)c2ccccc2)[C@]2(O)C[C@H](OC(C)=O)C(C)=C1C2(C)C`, 60%.
In the case of `CC(=O)O[C@@]12CO[C@@H]1C[C@H](O)[C@@]1(C)C(=O)[C@H](O)C3=C(C)[C@@H](OC(=O)CCc4ccc5ccccc5c4)C[C@@](O)([C@@H](OC(=O)c4ccccc4)[C@H]21)C3(C)C` it was 37%; in that of `CC(=O)O[C@H]1C(=O)[C@]2(C)[C@@H](OC(=O)/C=C/c3ccc4ccccc4c3)C[C@H]3OC[C@@]3(OC(C)=O)[C@H]2[C@H](OC(=O)c2ccccc2)[C@]23OC(=O)O[C@H]2[C@H](OC(C)=O)C(C)=C1C3(C)C`, 60%; in that of `CC(=O)O[C@H]1C(=O)[C@]2(C)[C@@H](OC(C)=O)C[C@H]3OC[C@@]3(OC(C)=O)[C@H]2[C@H](OC(=O)/C=C/c2ccc(C(=O)c3ccccc3)cc2)[C@]2(O)C[C@H](OC(C)=O)C(C)=C1C2(C)C`, 27%.
`CC(=O)O[C@H]1C(=O)[C@]2(C)[C@@H](OC(=O)CC3c4ccccc4-c4ccccc43)C[C@H]3OC[C@@]3(OC(C)=O)[C@H]2[C@H](OC(=O)c2ccccc2)[C@]2(O)C[C@H](OC(C)=O)C(C)=C1C2(C)C`: the Reduction is 67%.
As to `CC(=O)O[C@H]1C(=O)[C@]2(C)[C@@H](OC(=O)Cc3ccc(-c4ccccc4)cc3)C[C@H]3OC[C@@]3(OC(C)=O)[C@H]2[C@H](OC(=O)c2ccccc2)[C@]2(O)C[C@H](OC(C)=O)C(C)=C1C2(C)C`, the Reduction is 57%.
For `CC(=O)O[C@H]1C(=O)[C@]2(C)[C@@H](OC(=O)COc3ccc4ccccc4c3)C[C@H]3OC[C@@]3(OC(C)=O)[C@H]2[C@H](OC(=O)c2ccccc2)[C@]2(O)C[C@H](OC(C)=O)C(C)=C1C2(C)C` the value was 86%; for `CC(=O)O[C@H]1C(=O)[C@]2(C)[C@@H](OC(=O)c3cnc4ccccc4c3)C[C@H]3OC[C@@]3(OC(C)=O)[C@H]2[C@H](OC(=O)c2ccccc2)[C@]2(O)C[C@H](OC(C)=O)C(C)=C1C2(C)C`, 41%.
With `CC(=O)O[C@H]1C(=O)[C@]2(C)[C@@H](OC(=O)/C=C/c3ccc(OC(=O)c4ccccc4)cc3)C[C@H]3OC[C@@]3(OC(C)=O)[C@H]2[C@H](OC(=O)c2ccccc2)[C@]23OC(=O)O[C@H]2[C@H](OC(C)=O)C(C)=C1C3(C)C`, the Reduction is on record as 95%.
As for `C=C(c1ccccc1)c1cccc(/C=C/C(=O)O[C@H]2C[C@H]3OC[C@@]3(OC(C)=O)[C@H]3[C@H](OCc4ccccc4)[C@]4(O)C[C@H](OC(C)=O)C(C)=C([C@@H](OC(C)=O)C(=O)[C@]23C)C4(C)C)c1`, the Reduction is listed as 52%.
Regarding `CC(=O)O[C@H]1C(=O)[C@]2(C)[C@@H](OC(=O)c3ccc(C(=O)c4ccccc4)cc3)C[C@H]3OC[C@@]3(OC(C)=O)[C@H]2[C@H](OC(=O)c2ccccc2)[C@]2(O)C[C@H](OC(C)=O)C(C)=C1C2(C)C`, the Reduction was found to be 88%.
On to `CC(=O)O[C@H]1C[C@@]2(O)[C@@H](OC(=O)c3ccccc3)[C@@H]3[C@]4(OC(C)=O)CO[C@@H]4C[C@H](OC(C)=O)[C@@]3(C)C(=O)[C@H](OC(=O)/C=C/c3ccc(OC(=O)c4ccccc4)cc3)C(=C1C)C2(C)C`, for which the Reduction was found to be 7%.
In the case of `CC(=O)O[C@H]1C(=O)[C@]2(C)[C@@H](OC(=O)/C=C/c3ccc(OC(=O)c4ccc[nH]4)cc3)C[C@H]3OC[C@@]3(OC(C)=O)[C@H]2[C@H](OC(=O)c2ccccc2)[C@]23OC(=O)O[C@H]2[C@H](OC(C)=O)C(C)=C1C3(C)C`, the Reduction came to 63%.
In the case of `CC(=O)O[C@H]1C(=O)[C@]2(C)[C@@H](OC(=O)/C=C/c3ccc(C(=O)c4ccccc4)cc3)C[C@H]3OC[C@@]3(OC(C)=O)[C@H]2[C@H](OC(=O)c2ccccc2)[C@]23OC(=O)O[C@H]2[C@H](OC(C)=O)C(C)=C1C3(C)C` it was 94%; in that of `CC(=O)O[C@H]1C(=O)[C@]2(C)[C@@H](OC(=O)/C=C/c3ccc(OC(=O)c4ccc([N+](=O)[O-])cc4)cc3)C[C@H]3OC[C@@]3(OC(C)=O)[C@H]2[C@H](OC(=O)c2ccccc2)[C@]23OC(=O)O[C@H]2[C@H](OC(C)=O)C(C)=C1C3(C)C`, 27%; in that of `CC(=O)O[C@H]1C(=O)[C@]2(C)[C@@H](OC(=O)/C=C/c3ccc(O)cc3)C[C@H]3OC[C@@]3(OC(C)=O)[C@H]2[C@H](OC(=O)c2ccccc2)[C@]2(O)C[C@H](OC(C)=O)C(C)=C1C2(C)C`, 34%.
For `COc1ccc(C(=O)Oc2ccc(/C=C/C(=O)O[C@H]3C[C@H]4OC[C@@]4(OC(C)=O)[C@H]4[C@H](OC(=O)c5ccccc5)[C@]56OC(=O)O[C@H]5[C@H](OC(C)=O)C(C)=C([C@@H](OC(C)=O)C(=O)[C@]34C)C6(C)C)cc2)cc1` the value was 69%; for `CC(=O)O[C@H]1C(=O)[C@]2(C)[C@@H](OC(=O)/C=C/c3ccc(OC(=O)c4ccc(O)cc4)cc3)C[C@H]3OC[C@@]3(OC(C)=O)[C@H]2[C@H](OC(=O)c2ccccc2)[C@]2(O)C[C@H](OC(C)=O)C(C)=C1C2(C)C`, 24%.
Regarding `CC(=O)O[C@H]1C[C@@]2(O)[C@@H](OC(=O)c3ccccc3)[C@@H]3[C@]4(OC(C)=O)CO[C@@H]4C[C@H](OC(C)=O)[C@@]3(C)C(=O)[C@H](OC(=O)/C=C/c3ccc(Oc4ccccc4)cc3)C(=C1C)C2(C)C`, the Reduction is reported as 29%.
In the case of `CC(=O)O[C@H]1C(=O)[C@]2(C)[C@@H](OC(=O)CCCCc3ccc(C(=O)c4ccccc4)cc3)C[C@H]3OC[C@@]3(OC(C)=O)[C@H]2[C@H](OC(=O)c2ccccc2)[C@]23OC(=O)O[C@H]2[C@H](OC(C)=O)C(C)=C1C3(C)C` it was 0%; in that of `CC(=O)O[C@H]1C(=O)[C@]2(C)[C@@H](OC(=O)/C=C/c3cccc(OC(=O)c4ccccc4)c3)C[C@H]3OC[C@@]3(OC(C)=O)[C@H]2[C@H](OC(=O)c2ccccc2)[C@]2(O)C[C@H](OC(C)=O)C(C)=C1C2(C)C`, 17%.
In the case of `COc1cccc(C(=O)O[C@H]2[C@@H]3[C@]4(OC(C)=O)CO[C@@H]4C[C@H](OC(=O)/C=C/c4ccc(C(=O)c5ccccc5)cc4)[C@@]3(C)C(=O)[C@H](OC(C)=O)C3=C(C)[C@@H](OC(C)=O)C[C@]2(O)C3(C)C)c1` it was 95%; in that of `CC(=O)O[C@H]1C(=O)[C@]2(C)[C@@H](OC(=O)/C=C/c3cccc(NC(=O)c4ccccc4)c3)C[C@H]3OC[C@@]3(OC(C)=O)[C@H]2[C@H](OC(=O)c2ccccc2)[C@]23OC(=O)O[C@H]2[C@H](OC(C)=O)C(C)=C1C3(C)C`, 91%; in that of `COc1cccc(C(=O)Oc2ccc(/C=C/C(=O)O[C@H]3C[C@H]4OC[C@@]4(OC(C)=O)[C@H]4[C@H](OC(=O)c5ccccc5)[C@]5(O)C[C@H](OC(C)=O)C(C)=C([C@@H](OC(C)=O)C(=O)[C@]34C)C5(C)C)cc2)c1`, 34%.
With `CC(=O)O[C@H]1C(=O)[C@]2(C)[C@@H](OC(=O)/C=C/c3ccc(OC(=O)c4ccccc4)cc3)C[C@H]3OC[C@@]3(OC(C)=O)[C@H]2[C@H](OC(=O)c2ccccc2)[C@]2(O)C[C@H](OC(C)=O)C(C)=C1C2(C)C`, the Reduction is on record as 91%.
Consider `CC(=O)O[C@H]1C(=O)[C@]2(C)[C@@H](OC(=O)CCc3c(F)c(F)c(F)c(F)c3F)C[C@H]3OC[C@@]3(OC(C)=O)[C@H]2[C@H](OC(=O)c2ccccc2)[C@]2(O)C[C@H](OC(C)=O)C(C)=C1C2(C)C`, for which the Reduction is 59%.
For the compound `CC(=O)O[C@H]1C(=O)[C@]2(C)[C@@H](OC(=O)Cn3ccc4ccccc43)C[C@H]3OC[C@@]3(OC(C)=O)[C@H]2[C@H](OC(=O)c2ccccc2)[C@]2(O)C[C@H](OC(C)=O)C(C)=C1C2(C)C`, the Reduction amounted to 83%.
In the case of `CC(=O)O[C@H]1C(=O)[C@]2(C)[C@@H](OC(=O)/C=C/c3ccc(Oc4ccccc4)cc3)C[C@H]3OC[C@@]3(OC(C)=O)[C@H]2[C@H](OC(=O)c2ccccc2)[C@]2(O)C[C@H](OC(C)=O)C(C)=C1C2(C)C`, the Reduction was 90%.
As for `CC(=O)O[C@H]1C(=O)[C@]2(C)[C@@H](OC(=O)/C=C/c3ccc(Sc4ccccc4)cc3)C[C@H]3OC[C@@]3(OC(C)=O)[C@H]2[C@H](OC(=O)c2ccccc2)[C@]2(O)C[C@H](OC(C)=O)C(C)=C1C2(C)C`, the Reduction is reported as 64%.
